Laboratory results from patent US6355261B1, “Ultraviolet radiation absorbing waxes useful in cosmetic compositions” (priority 1999, dated 2002).

Legend:
[1] = Ultraviolet radiation transmittance and SPF of sunscreen lotions, LABSPHERE Ultraviolet Transmittance Analyzer
Description: Sunscreen lotion compositions were made and tested for UV absorbance. A control sample sunscreen lotion was made without a compound of formula (I) and a test sample was made in accordance with the invention, using a compound of formula (I) wherein n is 6 (HDDS). Table 1 summarizes the composition of the control and HDDS sunscreen lotions, by wt. %.
To prepare the sunscreen lotions, the A phase ingredients were blended together and heated to 90° C. to dissolve the oxybenzone. Next, the B phase ingredients were added with stirring until homogeneous. In a separate vessel, EDTA was dissolved in water and heated to 85° C. A preblended mixture of preservative, butylene glycol, and glycerin was added to the EDTA/water solution. In a separate vessel, carbomer was dispersed in 50 g water and set aside. With homogenization, the A+B oil phase was added to the C water phase. Next, the pre-dispersed carbomer D phase was added to the A+B+C mixture. While maintaining the temperature at 85° C., the mixture was homogenized for about 10 minutes, and then removed from heat and stirred with a propellor while cooling. When the temperature was below 40° C., the neutralizer E was slowly added and the mixture was stirred until a smooth, homogeneous lotion resulted.
Ultraviolet radiation transmittance and SPF of the control and HDDS samples were measured over the range 290 to 400 nm using a LABSPHERE Ultraviolet Transmittance Analyzer. Five scans were performed on each sample. Critical Wavelength (nm) and SPF data are reported in Table 2 below for the control and HDDS samples.
The ordinate represents absorbance, in units log(base 10)*(1/transmittance (%)), and the abscissa represents wavelength in nanometers.

[2] = Solubility of HDDS in esters of dibasic acids; format: physicochemical
[3] = HDDS in a sunscreen lotion versus control lotion

soluble in diisopropyl adipate ([2]; solvent diisopropyl adipate): at least 5 % by weight
soluble in dilsopropyl sebacate ([2]; solvent dilsopropyl sebacate): at least 5 % by weight
soluble in dioctyl adipate ([2]; solvent dioctyl adipate): at least 5 % by weight
soluble in dioctyl maleate ([2]; solvent dioctyl maleate): at least 5 % by weight
soluble in dioctyl sebacate ([2]; solvent dioctyl sebacate): at least 5 % by weight
SMILES: O=C(OCCCCCCOC(=O)c1ccccc1O)c1ccccc1O [HDDS, hexanediol disalicylate]
UV absorbance of the lotion ([1]; FIG. 1, average of five scans, versus control sample): increases UV absorbance of the lotion at every wavelength of radiation measured
SPF value of the lotion [1, 3]: boosts the SPF value
transmittance of UVA and UVB radiation [1, 3]: reduces the transmittance of UVA and UVB radiation
